# In PubChem BioAssay (NCI):
#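 Following 48 hours of exposure in 96-well plates, responses at five concentrations were used to interpolate endpoints linearly. At the GI50, growth is halved. TGI: concentration producing complete growth inhibition.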
# Experiments:
# Experiment in all cases: NCI tumour cell line growth inhibition, 48 h
# SF-268 CNS = test system: SF-268 CNS
# SK-MEL-28 melanoma = test system: SK-MEL-28 melanoma
# MDA-MB-435 = test system: MDA-MB-435
# SF-539 CNS = test system: SF-539 CNS
# SNB-75 CNS = test system: SNB-75 CNS
# NCI/ADR-RES ovarian = test system: NCI/ADR-RES ovarian
# SK-MEL-2 melanoma = test system: SK-MEL-2 melanoma
# HCT-116 colon = test system: HCT-116 colon
# SK-OV-3 ovarian = test system: SK-OV-3 ovarian
# NCI-H226 lung = test system: NCI-H226 lung
# SNB-19 CNS = test system: SNB-19 CNS
# IGROV1 ovarian = test system: IGROV1 ovarian
# MALME-3M melanoma = test system: MALME-3M melanoma
# COLO 205 colon = test system: COLO 205 colon
# OVCAR-3 ovarian = test system: OVCAR-3 ovarian
# MCF7 breast = test system: MCF7 breast
# SF-295 CNS = test system: SF-295 CNS
# A498 renal = test system: A498 renal
# HCC-2998 colon = test system: HCC-2998 colon
# MOLT-4 leukemia = test system: MOLT-4 leukemia
# HL-60(TB) leukemia = test system: HL-60(TB) leukemia
# HCT-15 colon = test system: HCT-15 colon
# LOX IMVI melanoma = test system: LOX IMVI melanoma
# SK-MEL-5 melanoma = test system: SK-MEL-5 melanoma
# SN12C renal = test system: SN12C renal
# RPMI-8226 leukemia = test system: RPMI-8226 leukemia
# CAKI-1 renal = test system: CAKI-1 renal
# CCRF-CEM leukemia = test system: CCRF-CEM leukemia
# HOP-92 NSCLC = test system: HOP-92 NSCLC
# M14 melanoma = test system: M14 melanoma
# U251 CNS = test system: U251 CNS
# UACC-62 melanoma = test system: UACC-62 melanoma
# T-47D breast = test system: T-47D breast
# MDA-MB-231 breast = test system: MDA-MB-231 breast
# DU-145 prostate = test system: DU-145 prostate
# NCI-H522 lung = test system: NCI-H522 lung
# NCI-H23 lung = test system: NCI-H23 lung
# KM12 colon = test system: KM12 colon
# HT29 colon = test system: HT29 colon
# EKVX NSCLC = test system: EKVX NSCLC
# UO-31 renal = test system: UO-31 renal
# SW-620 colon = test system: SW-620 colon
# PC-3 prostate = test system: PC-3 prostate
# RXF 393 renal = test system: RXF 393 renal
# A549 NSCLC = test system: A549 NSCLC
# OVCAR-5 ovarian = test system: OVCAR-5 ovarian
# BT-549 breast = test system: BT-549 breast
# OVCAR-4 ovarian = test system: OVCAR-4 ovarian
# HS 578T breast = test system: HS 578T breast
# K-562 leukemia = test system: K-562 leukemia
# ACHN renal = test system: ACHN renal
# TK-10 renal = test system: TK-10 renal
# HOP-62 NSCLC = test system: HOP-62 NSCLC
# MDA-MB-468 breast = test system: MDA-MB-468 breast
# 786-0 renal = test system: 786-0 renal
# OVCAR-8 ovarian = test system: OVCAR-8 ovarian
# NCI-H460 lung = test system: NCI-H460 lung
# UACC-257 melanoma = test system: UACC-257 melanoma
smiles,measurement,setting,value
COc1ccc(-c2nc3cc(C)ccc3n2CC(=O)N=Nc2c(O)[nH]c3ccccc23)cc1,GI50,SF-268 CNS,2.52 µM
same,TGI,SF-268 CNS,9.61 µM
same,GI50,SK-MEL-28 melanoma,1.71 µM
same,TGI,SK-MEL-28 melanoma,3.26 µM
same,GI50,MDA-MB-435,2.47 µM
same,TGI,MDA-MB-435,6.24 µM
same,GI50,SF-539 CNS,1.67 µM
same,TGI,SF-539 CNS,3.08 µM
same,GI50,SNB-75 CNS,1.55 µM
same,TGI,SNB-75 CNS,4.33 µM
same,GI50,NCI/ADR-RES ovarian,2.58 µM
same,TGI,NCI/ADR-RES ovarian,6.66 µM
same,GI50,SK-MEL-2 melanoma,10.3 µM
same,TGI,SK-MEL-2 melanoma,23.5 µM
same,GI50,HCT-116 colon,1.86 µM
same,TGI,HCT-116 colon,3.71 µM
same,GI50,SK-OV-3 ovarian,2.32 µM
same,TGI,SK-OV-3 ovarian,6.06 µM
same,GI50,NCI-H226 lung,1.88 µM
same,TGI,NCI-H226 lung,4.13 µM
same,GI50,SNB-19 CNS,4.11 µM
same,TGI,SNB-19 CNS,15.3 µM
same,GI50,IGROV1 ovarian,11.9 µM
same,TGI,IGROV1 ovarian,25 µM
same,GI50,MALME-3M melanoma,2.17 µM
same,TGI,MALME-3M melanoma,4.42 µM
same,GI50,COLO 205 colon,3.73 µM
same,TGI,COLO 205 colon,14 µM
same,GI50,OVCAR-3 ovarian,1.85 µM
same,TGI,OVCAR-3 ovarian,4.14 µM
same,GI50,MCF7 breast,2.17 µM
same,TGI,MCF7 breast,5.7 µM
same,GI50,SF-295 CNS,5.4 µM
same,TGI,SF-295 CNS,18.8 µM
same,GI50,A498 renal,11.8 µM
same,TGI,A498 renal,25.7 µM
same,GI50,HCC-2998 colon,13.1 µM
same,TGI,HCC-2998 colon,26.1 µM
same,GI50,MOLT-4 leukemia,3.65 µM
same,TGI,MOLT-4 leukemia,15.8 µM
same,GI50,HL-60(TB) leukemia,5.5 µM
same,TGI,HL-60(TB) leukemia,29.2 µM
same,GI50,HCT-15 colon,3.66 µM
same,TGI,HCT-15 colon,14.5 µM
same,GI50,LOX IMVI melanoma,6.32 µM
same,TGI,LOX IMVI melanoma,20.8 µM
same,GI50,SK-MEL-5 melanoma,2.61 µM
same,TGI,SK-MEL-5 melanoma,10.6 µM
same,GI50,SN12C renal,1.71 µM
same,TGI,SN12C renal,3.83 µM
same,GI50,RPMI-8226 leukemia,6.69 µM
same,TGI,RPMI-8226 leukemia,28.8 µM
same,GI50,CAKI-1 renal,2.86 µM
same,TGI,CAKI-1 renal,11.6 µM
same,GI50,CCRF-CEM leukemia,3.54 µM
same,TGI,CCRF-CEM leukemia,17.4 µM
same,GI50,HOP-92 NSCLC,1.94 µM
same,TGI,HOP-92 NSCLC,6.3 µM
same,GI50,M14 melanoma,2.31 µM
same,TGI,M14 melanoma,5.4 µM
same,GI50,U251 CNS,2.86 µM
same,TGI,U251 CNS,9.2 µM
same,GI50,UACC-62 melanoma,2.14 µM
same,TGI,UACC-62 melanoma,6.96 µM
same,GI50,T-47D breast,3.15 µM
same,TGI,T-47D breast,17.8 µM
same,GI50,MDA-MB-231 breast,2.06 µM
same,TGI,MDA-MB-231 breast,4.64 µM
same,GI50,DU-145 prostate,3.57 µM
same,TGI,DU-145 prostate,14 µM
same,GI50,NCI-H522 lung,4.68 µM
same,TGI,NCI-H522 lung,19.5 µM
same,GI50,NCI-H23 lung,4.15 µM
same,TGI,NCI-H23 lung,15.8 µM
same,GI50,KM12 colon,3.96 µM
same,TGI,KM12 colon,16 µM
same,GI50,HT29 colon,1.82 µM
same,TGI,HT29 colon,3.52 µM
same,GI50,EKVX NSCLC,3.67 µM
same,TGI,EKVX NSCLC,15.5 µM
same,GI50,UO-31 renal,12.2 µM
same,TGI,UO-31 renal,24.8 µM
same,GI50,SW-620 colon,3.03 µM
same,TGI,SW-620 colon,16.3 µM
same,GI50,PC-3 prostate,2.42 µM
same,TGI,PC-3 prostate,7.01 µM
same,GI50,RXF 393 renal,1.55 µM
same,TGI,RXF 393 renal,3.71 µM
same,GI50,A549 NSCLC,1.88 µM
same,TGI,A549 NSCLC,4.02 µM
same,GI50,OVCAR-5 ovarian,2.4 µM
same,TGI,OVCAR-5 ovarian,8.1 µM
same,GI50,BT-549 breast,1.77 µM
same,TGI,BT-549 breast,4.98 µM
same,GI50,OVCAR-4 ovarian,2.17 µM
same,TGI,OVCAR-4 ovarian,5.41 µM
same,GI50,HS 578T breast,2.27 µM
same,TGI,HS 578T breast,7.12 µM
same,GI50,K-562 leukemia,3.23 µM
same,TGI,K-562 leukemia,43.5 µM
same,GI50,ACHN renal,3.03 µM
same,TGI,ACHN renal,11.9 µM
same,GI50,TK-10 renal,10.5 µM
same,TGI,TK-10 renal,23.7 µM
same,GI50,HOP-62 NSCLC,3.7 µM
same,TGI,HOP-62 NSCLC,18.2 µM
same,GI50,MDA-MB-468 breast,2.26 µM
same,TGI,MDA-MB-468 breast,5.87 µM
same,GI50,786-0 renal,12.7 µM
same,TGI,786-0 renal,26 µM
same,GI50,OVCAR-8 ovarian,2.19 µM
same,TGI,OVCAR-8 ovarian,4.87 µM
same,GI50,NCI-H460 lung,2.17 µM
same,TGI,NCI-H460 lung,4.87 µM
same,GI50,UACC-257 melanoma,2.38 µM
same,TGI,UACC-257 melanoma,6.76 µM
